Reference: patent publication EP0974360A2, “Pharmaceutical preparations for use in combatting or preventing surface infections caused by microorganisms” (N.V. Nutricia, priority 1998, dated 2000)

What was measured:
[1] = system: C. glabrata Y110; test: Synergy experiments (8 by 8 dilution matrix, growth by UV turbidity at 630 nm); assay type: cell-based; details: for UV (Candida growth, 630 nm): 24 hours
[2] = system: C. glabrata Y110; test: MIC and growth inhibition at several pH's in SLM or RPMI medium; assay type: cell-based; details: figures 5 and 6

Compound	UV (Candida growth, 630 nm) ([1]; Fluconazole 0.2 mg/ml alone)	UV (Candida growth, 630 nm) ([1]; Fluconazole 0.33 mg/ml alone)	UV (Candida growth, 630 nm) ([1]; Fluconazole 0.5 mg/ml alone)	effect of an increase in pH of the medium on inhibition [2]	decline of effective concentration as compared to its MIC value ([1]; 0.0008 µg/ml 5-fluorocytosine with 0.02 mg/ml lactoferrin) [times]
OC(Cn1cncn1)(Cn1cncn1)c1ccc(F)cc1F [Fluconazole, fluconazole]	0.003	0.003	0.004	more efficient inhibition	–
Nc1nc(=O)[nH]cc1F [5-Fluorocytosine, 5-fluorocytosine]	–	–	–	–	30
